Drawing on patent US9024018B2, “3-substituted-8-substituted-3H-imidazo[5,1-d][1,2,3,5]tetrazin-4-one compounds and their use” (Pharminox Limited, priority 2009, dated 2015), this text covers GI50 for 27 compounds.

Holding throughout (assay type): cell-based
Assay [1] has as its system SNB19V. Description: MTT assay for 7-day toxicity, SNB19V glioma cells (vector control, MGMT-). The note with it: Glioma cell, 168 h, 7 day MTT assay, glioma line SNB19V. As to the method: (§1) The cell culture techniques were carried out in a Class II microbiological safety cabinet which was swabbed with 70% IMS in distilled water before each use. Glioma cells were routinely cultured in Costar tissue culture flasks in RPMI 1640 liquid medium (containing 0.3 g/L L-glutamine and 2 g/L sodium bicarbonate) supplemented with 10% heat inactivated FBS (55-59° C.) for 1 hour to denature complement proteins which would otherwise evoke a cellular immune response resulting in cell lysis, 1% non-essential amino acids, 50 μg/mL gentamicin and 400 μg/mL G418 (vector selection reagent). Colorectal and melanoma cells were maintained in RPMI 1640 supplemented with 10% FBS. MRC-5 cells were cultured in EMEM+10% FBS, 1% pen/strep, 1% non-essential amino acids, 1% HEPES (1M) and 1% sodium bicarbonate.
(§2) Cells were grown at 37° C. in a humidified incubator in an atmosphere comprising 95% air/5% CO2. Cells were sub-cultured when growth exceeded approximately 80% confluence, normally twice weekly. The medium was aspirated from the flask and approximately 0.8 mL trypsin-EDTA 1× solution added. The cells were re-incubated at 37° C. until they had visibly detached from the flask. The cells were re-suspended in 5 mL medium and 0.5-1 mL was transferred to a new flask (25 cm^2) with 7 mL culture medium. The cells were further incubated at 37° C. To minimize phenotypic drift, cells were disposed of once they had been subcultured 30 times. New batches of cells were thawed rapidly in 37° C. water bath once taken from liquid nitrogen storage and re-suspended in 10 mL of culture medium in a 25 cm^2 flask. Cells were passaged twice to allow normal growth to resume prior to use in experiments.
(§3) Most test compounds, including temozolomide, were prepared as 100 mM stock solutions in DMSO and stored at −20° C. for not more than 6 months.
(§4) MTT Assay for 7-Day Toxicity Assay
(§5) This assay was first described in Mosmann, T., 1983, “Rapid colorimetric assay for cellular growth and survival: Application to proliferation and cytotoxicity assays”, Journal of Immunological Methods, Vol. 65, Nos. 1-2, pp. 55-63.
(§6) Glioma cell lines, SNB19 and U373, both stably transfected with MGMT (i.e., SNB19M and U373M) or their respective vector controls (i.e., SNB19V and U373V); colorectal carcinoma cell lines, HCT116, HT29, and DLD1; melanoma cell line, SKMEL-28; breast cell line, MCF-7; and normal human fetal lung fibroblast cell line, MRC-5; were used at 60-80% confluence, during the logarithmic phase of growth.
(§7) Following harvesting with trypsin/EDTA, cells in suspension were gently syringed through a 23 gauge needle to obtain a near-single cell suspension. Cells were then seeded into 96-well plates at the desired density in 180 μL culture medium if only one test compound was to be added, or in 160 μL if two test compounds were to be added in combination. Cells were allowed to attach overnight by incubation at 37° C. in 95% air/5% CO2. For the 7 day assay, the cell seeding densities for the different cell lines were as follows: SNB19V, SNB19M: 650 cells/well; U373V, U373M: 650 cells/well; SNB19VR, U373VR: 650 cells/well; HCT116, DLD-1, SKMEL-28, MRC-5, MCF-7: 400 cells/well.
(§8) The two peripheral lanes of each plate were used as blank wells (cell free) and filled with 200 μL of medium in order to minimise medium evaporation from the plate. A separate time zero (T0) plate was set up alongside other plates. Serial dilutions in tissue culture medium of a 100 mM stock of test compound were prepared immediately before each assay to ten times the final concentrations required. 20 μL was added to each well (200 μL total media per well) to achieve final concentrations of 0.5 μM, 1 μM, 5 μM, 10 μM, 50 μM, 100 μM, 500 μM, and 1000 μM. A minimum of four wells received the same test compound concentration. To control wells, including those in the T0 plate, 20 μL of medium was added. […]

Assay [2] has as its system SNB19M. The assay is described as follows: MTT assay for 7-day toxicity, SNB19M glioma cells (stably transfected with MGMT, MGMT+). The note with it: Glioma cell, 168 h, 7 day MTT assay, glioma line SNB19M. How it is done: as §1, §2, §3, §4, §5, §6, §7, §8
For assay [3], the system named is U373V. Description: MTT assay for 7-day toxicity, U373V glioma cells (vector control, MGMT-). The note with it: Glioma cell, 168 h, 7 day MTT assay, glioma line U373V. How it is done: as §1, §2, §3, §4, §5, §6, §7, §8
The subject of assay [4] is U373M. Description: MTT assay for 7-day toxicity, U373M glioma cells (stably transfected with MGMT, MGMT+). The note with it: 7 day MTT assay, glioma line U373M. How it is done: as §1, §2, §3, §4, §5, §6, §7, §8

As for `Cn1nnc2c(C(=O)NO)ncn2c1=O` [RR-001, N-Hydroxy-3-methyl-4-oxo-3,4-dihydroimidazo[5,1-d][1,2,3,5]tetrazine-8-carboxamide], the GI50 in assay [1] stood at 41 µM; in assay [2], 87.1 µM.

As to `Cn1nnc2c(-c3nc(-c4nccs4)cs3)ncn2c1=O` [WW-010, 8-(2,4′-Bithiazol-2′-yl)-3-methylimidazo[5,1-d][1,2,3,5]tetrazin-4(3H)-one], the GI50 is less than 45 µM in assay [1] and less than 70 µM in assay [2].

As for `Cn1nnc2c(-c3nc(-c4cccs4)cs3)ncn2c1=O` [WW-011, 3-Methyl-8-(4-(thiophen-2-yl)thiazol-2-yl)imidazo[5,1-d][1,2,3,5]tetrazin-4(3H)-one], the GI50 is less than 45 µM in assay [1], less than 70 µM in assay [2] and less than 75 µM in assay [3].

Turning to `Cn1nnc2c(-c3nc(-c4ccncc4)cs3)ncn2c1=O` [WW-013], the GI50 in assay [2] was less than 70 µM; in assay [3], less than 75 µM; in assay [4] (Glioma cell, 168 h) it was less than 60 µM.

Turning to `COCn1nnc2c(-c3nc(C(C)(C)C)cs3)ncn2c1=O` [WW-014, 8-(4-tert-Butylthiazol-2-yl)-3-(methoxymethyl)imidazo[5,1-d][1,2,3,5]tetrazin-4(3H)-one], the GI50 in assay [2] was less than 70 µM; in assay [3], less than 75 µM; in assay [4] (Glioma cell, 168 h) it was less than 60 µM.

Consider `COCn1nnc2c(-c3nc(-c4nccs4)cs3)ncn2c1=O` [WW-015, 8-(2,4′-Bithiazol-2′-yl)-3-(methoxymethyl)imidazo[5,1-d][1,2,3,5]tetrazin-4(3H)-one], for which the GI50 in assay [2] was less than 70 µM; in assay [3], less than 75 µM; in assay [4] (Glioma cell, 168 h) it was less than 60 µM.

With `COCn1nnc2c(-c3nc(-c4ccccc4)cs3)ncn2c1=O` [WW-016, 3-(Methoxymethyl)-8-(4-phenylthiazol-2-yl)imidazo[5,1-d][1,2,3,5]tetrazin-4(3H)-one], the concentration for 50% growth inhibition (GI50) was less than 70 µM in assay [2]; less than 75 µM in assay [3]; less than 60 µM in assay [4] (Glioma cell, 168 h).

Take `COCn1nnc2c(-c3nc(-c4ccsc4)cs3)ncn2c1=O` [WW-017]: the GI50 in assay [1] was less than 45 µM; in assay [2], less than 70 µM.

As to `COCn1nnc2c(-c3nc(-c4cccs4)cs3)ncn2c1=O` [WW-018, 3-(Methoxymethyl)-8-(4-(thiophen-2-yl)thiazol-2-yl)imidazo[5,1-d][1,2,3, 5]tetrazin-4(3H)-one], the 50% growth inhibitory concentration (GI50) in assay [1] was less than 45 µM; in assay [2], less than 70 µM.

With `COCn1nnc2c(-c3nc(-c4ccncc4)cs3)ncn2c1=O` [WW-019, 3-(Methoxymethyl)-8-(4-(pyridin-4-yl)thiazol-2-yl)imidazo[5,1-d][1,2,3,5]tetrazin-4(3H)-one], the 50% growth inhibitory concentration (GI50) was less than 45 µM in assay [1] and less than 70 µM in assay [2].

With `C#CCn1nnc2c(-c3nc(C(C)(C)C)cs3)ncn2c1=O` [WW-020, 8-(4-tert-Butylthiazol-2-yl)-3-(prop-2-ynyl)imidazo[5,1-d][1,2,3,5]tetrazin-4(3H)-one], the 50% growth inhibitory concentration (GI50) in assay [2] is less than 70 µM.

For the compound `Cn1nnc2c(-c3nc(-c4ccc(Br)cc4)cs3)ncn2c1=O` [WW-022, 8-(4-(4-Bromophenyl)thiazol-2-yl)-3-methylimidazo[5,1-d][1,2,3,5]tetrazin-4(3H)-one], the GI50 is less than 45 µM in assay [1] and less than 70 µM in assay [2].

Turning to `COCn1nnc2c(-c3nc(-c4ccc(S(C)(=O)=O)cc4)cs3)ncn2c1=O` [WW-027, 3-(Methoxymethyl)-8-(4-(4-(methylsulfonyl)phenyl)thiazol-2-yl)imidazo[5,1-d][1,2,3,5]tetrazin-4(3H)-one], the 50% growth inhibitory concentration (GI50) in assay [4] was 33.1 µM; in assay [4] (Glioma cell, 168 h) it was less than 60 µM.

As to `Cn1nnc2c(-c3nnc(-c4ccccc4)o3)ncn2c1=O` [WW-041, 3-Methyl-8-(5-phenyl-1,3,4-oxadiazol-2-yl)imidazo[5,1-d][1,2,3,5]tetrazin-4(3H)-one], the GI50 in assay [1] was less than 45 µM; in assay [3], less than 75 µM.

Consider `C[S+]([O-])Cn1nnc2c(-c3nnc(-c4ccccc4)o3)ncn2c1=O` (centres unmarked) [WW-043, 3-(Methylsulfinylmethyl)-8-(5-phenyl-1,3,4-oxadiazol-2-yl)imidazo[5,1-d][1,2,3,5]tetrazin-4(3H)-one], for which the GI50 in assay [1] is less than 45 µM; in assay [2], less than 70 µM.

As to `Cn1nnc2c(-c3nnc(Nc4ccccc4)o3)ncn2c1=O` [WW-044, 3-Methyl-8-(5-(phenylamino)-1,3,4-oxadiazol-2-yl)imidazo[5,1-d][1,2,3,5]tetrazin-4(3H)-one], the concentration for 50% growth inhibition (GI50) in assay [3] is less than 75 µM.

As for `CNc1nnc(-c2ncn3c(=O)n(C)nnc23)o1` [WW-045, 3-Methyl-8-(5-(methylamino)-1,3,4-oxadiazol-2-yl)imidazo[5,1-d][1,2,3,5]tetrazin-4(3H)-one], the values for the 50% growth inhibitory concentration (GI50) in assay [1] and in assay [3] were less than 45 µM and less than 75 µM, respectively.

For `C#CCn1nnc2c(-c3nc(-c4cccs4)cn3C)ncn2c1=O` [WW-053, 8-(1-Methyl-4-(thiophen-2-yl)-1H-imidazol-2-yl)-3-(prop-2-ynyl)imidazo[5,1-d][1,2,3,5]tetrazin-4(3H)-one], the GI50 in assay [1] is less than 45 µM; in assay [2], less than 70 µM.

As to `Cn1nnc2c(-c3nc4ccccc4o3)ncn2c1=O` [WW-054, 8-(Benzo[d]oxazol-2-yl)-3-methylimidazo[5,1-d][1,2,3,5]tetrazin-4(3H)-one], the GI50 is less than 45 µM in assay [1] and less than 75 µM in assay [3].

As for `C[S+]([O-])Cn1nnc2c(-c3nc4ccccc4o3)ncn2c1=O` (centres unmarked) [WW-056, 8-(Benzo[d]oxazol-2-yl)-3-(methylsulfinylmethyl)imidazo[5,1-d][1,2,3,5]tetrazin-4(3H)-one], the GI50 was less than 45 µM in assay [1] and less than 70 µM in assay [2].

Consider `COCn1nnc2c(-c3nc4ccccc4o3)ncn2c1=O` [WW-057], for which the GI50 in assay [2] is less than 70 µM.

As to `C#CCn1nnc2c(-c3nc4ccccc4s3)ncn2c1=O` [WW-059, 8-(Benzo[d]thiazol-2-yl)-3-(prop-2-ynyl)imidazo[5,1-d][1,2,3, 5]tetrazin-4(3H)-one], the concentration for 50% growth inhibition (GI50) was less than 45 µM in assay [1] and less than 70 µM in assay [2].

On to `COCn1nnc2c(-c3nc4ccccc4s3)ncn2c1=O` [WW-060, 8-(Benzo[d]thiazol-2-yl)-3-(methoxymethyl)imidazo[5,1-d][1,2,3,5]tetrazin-4(3H)-one], for which the concentration for 50% growth inhibition (GI50) in assay [1] was less than 45 µM; in assay [2], less than 70 µM.

For the compound `C[S+]([O-])Cn1nnc2c(-c3nc4ccccc4s3)ncn2c1=O` (centres unmarked) [WW-061, 8-(Benzo[d]thiazol-2-yl)-3-(methylsulfinylmethyl)imidazo[5,1-d][1,2,3,5]tetrazin-4(3H)-one], the results for the concentration for 50% growth inhibition (GI50) in assay [1] and in assay [2] were less than 45 µM and less than 70 µM, respectively.

`COCn1nnc2c(-c3nc4ccccc4[nH]3)ncn2c1=O` [WW-064, 8-(1H-Benzo[d]imidazol-2-yl)-3-(methoxymethyl)imidazo[5,1-d][1,2,3,5]tetrazin-4(3H)-one]: the results for the concentration for 50% growth inhibition (GI50) in assay [1] and in assay [2] were less than 45 µM and less than 70 µM, respectively.

Consider `C#CCn1nnc2c(-c3nc4ccccc4n3C)ncn2c1=O` [WW-065, 8-(1-Methyl-1H-benzo[d]imidazol-2-yl)-3-(prop-2-ynyl)imidazo[5,1-d][1,2,3,5]tetrazin-4(3H)-one], for which the results for the GI50 in assay [1] and in assay [2] were less than 45 µM and less than 70 µM, respectively.

With `Cn1nnc2c(-c3nc4ccccc4n3C)ncn2c1=O` [WW-066, 3-Methyl-8-(1-methyl-1H-benzo[d]imidazol-2-yl)imidazo[5,1-d][1,2,3,5]tetrazin-4(3H)-one], the concentration for 50% growth inhibition (GI50) is less than 45 µM in assay [1] and less than 70 µM in assay [2].
